Results on two molecules are retold here after patent US20260216190A1, “TREATMENT OF HEMATOLOGICAL MALIGNANCIES WITH INHIBITORS OF MENIN” (Kura Oncology, Inc., priority 2018, published 2026).

What is called IC50 is the concentration that gives 50% inhibition.

The target of the assay is T1, menin-MLL interaction (Homo sapiens, UniProt O00255).
T1 sequence (O00255 1-610): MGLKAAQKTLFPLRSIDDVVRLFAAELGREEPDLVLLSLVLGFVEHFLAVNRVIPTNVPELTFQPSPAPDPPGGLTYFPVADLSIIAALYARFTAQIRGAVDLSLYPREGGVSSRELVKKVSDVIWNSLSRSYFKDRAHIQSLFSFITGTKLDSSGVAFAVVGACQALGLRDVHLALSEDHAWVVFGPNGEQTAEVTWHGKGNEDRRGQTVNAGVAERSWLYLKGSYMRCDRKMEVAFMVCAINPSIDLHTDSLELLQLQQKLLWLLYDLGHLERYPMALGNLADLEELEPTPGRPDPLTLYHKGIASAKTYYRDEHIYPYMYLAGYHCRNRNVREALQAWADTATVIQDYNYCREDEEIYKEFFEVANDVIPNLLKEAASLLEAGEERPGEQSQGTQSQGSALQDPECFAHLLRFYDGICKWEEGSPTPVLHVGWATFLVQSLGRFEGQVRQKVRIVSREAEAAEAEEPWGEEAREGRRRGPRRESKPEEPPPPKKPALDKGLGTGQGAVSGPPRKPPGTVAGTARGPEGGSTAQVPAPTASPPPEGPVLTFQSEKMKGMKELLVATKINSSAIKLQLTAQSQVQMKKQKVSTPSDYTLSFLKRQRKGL
Put plainly: Fluorescence polarization (FP) competition assay. It counts as binding. As to conditions: read-out: Menin MLL 4-43 IC50. For orientation: Fluorescence polarisation rises when a labelled molecule tumbles more slowly, as on binding a larger partner.

SMILES strings stand for the structures.

With `COCCNS(=O)(=O)N1CCN([C@@H](C)Cn2c(C#N)cc3c(C)c(CN4CCC(Nc5ncnc6sc(CC(F)(F)F)cc56)CC4)ccc32)CC1` [Compound I-142], the IC50 fell in the range of 50 to 250 nM.

For `Cc1c(CN2CCC(Nc3ncnc4sc(CC(F)(F)F)cc34)CC2)ccc2c1cc(C#N)n2CC(C1CC1)N1CCN(S(C)(=O)=O)CC1` (centres unmarked) [Compound I-23], the IC50 is below 50 nM.
